Experiments:
[1] = Inhibition of HCV NS5B polymerase; design: species or system Hepacivirus hominis
Hepatitis C virus [2] = experiment: Antiviral activity against HCV 1b in human HuH7cells by luciferase reporter replicon assay; format: functional, organism-based, Hepacivirus hominis; settings: genotype 1b, Huh-7
[3] = Cytotoxicity against human HuH7 cells after 5 days by ATPlite luminescence assay; format: cell-based, Huh-7
Hepatitis C virus [4] = experiment: Inhibition of HCV 1b J4 recombinant NS5B Cdelta 21 polymerase overexpressed in Escherichia coli BL21 (DE3) assessed as [alpha33P]UTP incorporation by scintillation proximity analysis; design: species or system Hepatitis C virus subtype 1b
[5] = Apparent permeability from apical to basolateral side of human Caco-2 cells; format: ADME, cell-based
[6] = Selectivity index, ratio of CC50 for human HuH7 cells to EC50 for HCV 1b in human HuH7cells; format: functional, Huh-7

SMILES | IC50 [1] | EC50 (Hepatitis C virus [2]) | CC50 at 120 h [3] | IC50 (Hepatitis C virus [4]) | Papp A→B [5] | Selectivity Index [6]
O=C(O)/C(=C/c1ccc(Oc2ccccc2Br)cc1)NC(=O)c1ccccc1 | 0.1 µM | – | – | – | – | –
O=C(O)/C(=C/c1ccc(Oc2ccccc2)cc1)NC(=O)c1ccccc1 | 17 µM | – | – | – | – | –
O=C(O)/C(=C/c1ccc(Oc2c(F)cccc2Br)cc1)NC(=O)c1ccccc1 | 0.03 µM | – | – | – | – | –
CC1(C)CC(=O)C2=C(C1)Nc1c(O)cccc1N(C(=O)c1ccncn1)C2c1ccc(OCc2ccccc2)cc1F (stereo unspecified) | – | 0.73 µM | > 32 µM | 0.06 µM | – | –
CC1(C)CC(=O)C2=C(C1)Nc1c(O)cccc1N(C(=O)c1nccs1)C2c1ccc(OCc2ccccc2)cc1F (stereo unspecified) | – | 1.7 µM | 19 µM | 0.111 µM | – | –
CC1(C)CC(=O)C2=C(C1)Nc1c(O)cccc1N(C(=O)c1ccccn1)C2c1ccc(OCc2ccccc2)cc1F (stereo unspecified) | – | 0.36 µM | 15 µM | 0.051 µM | – | –
CC(=O)N1c2cccc(O)c2NC2=C(C(=O)CC(C)(C)C2)C1c1ccc(Oc2ccccc2)cc1Cl (stereo unspecified) | – | 9.9 µM | – | 0.16 µM | – | –
CC(=O)N1c2cccc(O)c2NC2=C(C(=O)CC(C)(C)C2)C1c1ccc(Cl)cc1Cl (stereo unspecified) | – | 3 µM | – | 0.1 µM | – | –
CC(=O)N1c2cccc(O)c2NC2=C(C(=O)CC(C)(C)C2)[C@@H]1c1ccc(Cl)cc1Cl | – | 2.42 µM | – | – | – | –
CC(=O)N1c2ccncc2NC2=C(C(=O)CC(C)(C)C2)C1c1ccc(Cl)cc1Cl (stereo unspecified) | – | > 32 µM | – | 0.51 µM | – | –
CC(=O)N1c2ncnc(O)c2NC2=C(C(=O)CC(C)(C)C2)C1c1ccc(Cl)cc1Cl (stereo unspecified) | – | > 32 µM | – | > 32 µM | – | –
CC(=O)N1c2cccc(O)c2NC2=C(C(=O)CC(C)(C)C2)C1C1CCCCC1 (stereo unspecified) | – | 0.74 µM | – | 22 µM | – | –
CC(=O)N1CC2=C(CC(C)(C)CC2=O)Nc2c(O)cccc21 | – | > 32 µM | – | > 32 µM | – | –
Cc1nc(C(=O)N2c3cccc(O)c3NC3=C(C(=O)CC(C)(C)C3)C2c2ccc(OCc3ccccc3)cc2F)cs1 (stereo unspecified) | – | 0.97 µM | > 32 µM | 0.143 µM | – | –
CC(=O)N1c2ncccc2NC2=C(C(=O)CC(C)(C)C2)C1c1ccc(Cl)cc1Cl (stereo unspecified) | – | > 32 µM | – | 8.04 µM | – | –
CC(C)C(=O)N1c2cccc(O)c2NC2=C(C(=O)CC(C)(C)C2)C1c1ccc(OCc2ccccc2)cc1F (stereo unspecified) | – | 1.3 µM | 14 µM | 0.123 µM | – | –
CC(=O)N1c2cccc(O)c2NC2=C(C(=O)CC(C)(C)C2)C1c1ccco1 (stereo unspecified) | – | 43 µM | – | 21 µM | – | –
CC(=O)N1c2cccc(O)c2NC2=C(C(=O)CC(C)(C)C2)C1c1nccn1C (stereo unspecified) | – | > 32 µM | – | > 32 µM | – | –
Cc1cc(OCc2ccccc2)ccc1C1C2=C(CC(C)(C)CC2=O)Nc2c(O)cccc2N1C(=O)C(C)C (stereo unspecified) | – | 1.6 µM | 15 µM | 0.124 µM | – | –
CC(=O)N1c2ccccc2NC2=C(C(=O)CC(C)(C)C2)C1c1ccc(Cl)cc1Cl (stereo unspecified) | – | > 32 µM | – | 3.1 µM | – | –
CC(=O)N1c2cccc(Br)c2NC2=C(C(=O)CC(C)(C)C2)C1c1ccc(Cl)cc1Cl (stereo unspecified) | – | 7.8 µM | – | 6.12 µM | – | –
CC(=O)N1c2cccc(C#N)c2NC2=C(C(=O)CC(C)(C)C2)C1c1ccc(Cl)cc1Cl (stereo unspecified) | – | 15.4 µM | – | 6.97 µM | – | –
Cc1cccc(C(=O)N2c3cccc(O)c3NC3=C(C(=O)CC(C)(C)C3)C2c2ccc(OCc3ccccc3)cc2F)n1 (stereo unspecified) | – | 0.5 µM | 18 µM | 0.07 µM | – | –
CC1(C)CC(=O)C2=C(C1)Nc1c(O)cccc1N(C(=O)c1cccc(F)n1)C2c1ccc(OCc2ccccc2)cc1F (stereo unspecified) | – | 0.86 µM | > 32 µM | 0.077 µM | – | –
CC1(C)CC(=O)C2=C(C1)Nc1c(O)cccc1N(C(=O)c1cscn1)C2c1ccc(OCc2ccccc2)cc1F (stereo unspecified) | – | 0.76 µM | 29 µM | 0.039 µM | – | –
Cc1nc(C(=O)N2c3cccc(O)c3NC3=C(C(=O)CC(C)(C)C3)[C@@H]2c2ccc(OCc3ccccc3)cc2F)c(C)o1 | – | 0.27 µM | 28 µM | 0.029 µM | 10.9 ×10⁻⁶ cm/s | 100

SMILES | IC50 [1] | EC50 (Hepatitis C virus [2]) | CC50 at 120 h [3] | IC50 (Hepatitis C virus [4]) | Papp A→B [5] | Selectivity Index [6]
Cc1cc(C(=O)N2c3cccc(O)c3NC3=C(C(=O)CC(C)(C)C3)C2c2ccc(OCc3ccccc3)cc2F)no1 (stereo unspecified) | – | 1.8 µM | 45 µM | 0.12 µM | – | –
CC1(C)CC(=O)C2=C(C1)Nc1c(O)cccc1N(C(=O)c1ncn[nH]1)C2c1ccc(OCc2ccccc2)cc1F (stereo unspecified) | – | 2.4 µM | > 32 µM | 0.021 µM | – | –
CC1(C)CC(=O)C2=C(C1)Nc1c(O)cccc1N(C(=O)c1cccc(Cl)n1)C2c1ccc(OCc2ccccc2)cc1F (stereo unspecified) | – | 0.69 µM | 13 µM | 0.108 µM | – | –
CC1(C)CC(=O)C2=C(C1)Nc1c(O)cccc1N(C(=O)c1ccco1)C2c1ccc(OCc2ccccc2)cc1F (stereo unspecified) | – | 2.2 µM | 16 µM | 0.075 µM | – | –
Cc1nc(C(=O)N2c3cccc(O)c3NC3=C(C(=O)CC(C)(C)C3)C2c2ccc(OCc3ccccc3)cc2F)co1 (stereo unspecified) | – | 1.6 µM | 29 µM | 0.063 µM | – | –
Cc1cccc(C(=O)N2c3cccc(O)c3NC3=C(C(=O)CC(C)(C)C3)[C@@H]2c2ccc(OCc3ccccc3)cc2F)n1 | – | 0.4 µM | 21 µM | 0.089 µM | 11.6 ×10⁻⁶ cm/s | 50
Cc1cccc(C(=O)N2c3cccc(O)c3NC3=C(C(=O)CC(C)(C)C3)[C@H]2c2ccc(OCc3ccccc3)cc2F)n1 | – | 5.7 µM | 18 µM | > 11 µM | – | –
Cc1cc(C(=O)N2c3cccc(O)c3NC3=C(C(=O)CC(C)(C)C3)C2c2ccc(OCc3ccccc3)cc2F)nn1C (stereo unspecified) | – | 1 µM | 25 µM | 0.05 µM | – | –
Cc1nc(C(=O)N2c3cccc(O)c3NC3=C(C(=O)CC(C)(C)C3)C2c2ccc(OCc3ccccc3)cc2F)c(C)o1 (stereo unspecified) | – | 0.57 µM | 28 µM | 0.079 µM | – | –
Cc1nc(C(=O)N2c3cccc(O)c3NC3=C(C(=O)CC(C)(C)C3)[C@H]2c2ccc(OCc3ccccc3)cc2F)c(C)o1 | – | 3.6 µM | 13 µM | 27 µM | – | –
CC1(C)CC(=O)C2=C(C1)Nc1c(O)cccc1N(C(=O)c1cccnc1)C2c1ccc(OCc2ccccc2)cc1F (stereo unspecified) | – | 2.3 µM | 20 µM | 0.109 µM | – | –
CC1(C)CC(=O)C2=C(C1)Nc1c(O)cccc1N(C(=O)c1ccncc1)C2c1ccc(OCc2ccccc2)cc1F (stereo unspecified) | – | 3.3 µM | 76 µM | 0.086 µM | – | –
CC(=O)N1c2cccc(O)c2NC2=C(C(=O)CC(C)(C)C2)[C@H]1c1ccc(Cl)cc1Cl | – | 14.5 µM | – | 14.4 µM | – | –
CC(=O)N1c2ncncc2NC2=C(C(=O)CC(C)(C)C2)C1c1ccc(Cl)cc1Cl (stereo unspecified) | – | > 32 µM | – | 0.51 µM | – | –
CC(=O)N1c2cccc(O)c2NC2=C(C(=O)CC(C)(C)C2)C1c1ccc(Oc2c(F)cccc2Br)cc1Cl (stereo unspecified) | – | 6.3 µM | – | 0.12 µM | – | –
CC(C)C(=O)N1c2cccc(O)c2NC2=C(C(=O)CC(C)(C)C2)C1c1ccc(OCc2ccccc2)cc1Cl (stereo unspecified) | – | 1.5 µM | 17 µM | 0.154 µM | – | –
CC(=O)N1c2cccc(O)c2NC2=C(C(=O)CC(C)(C)C2)C1c1sccc1OCc1ccccc1 (stereo unspecified) | – | 11 µM | – | 0.18 µM | – | –
CC(=O)N1c2cccc(O)c2NC2=C(C(=O)CC(C)(C)C2)C1c1ccc(OCc2ccccc2)cc1Cl (stereo unspecified) | – | 1.5 µM | 15 µM | 0.04 µM | – | –
CC(=O)N1c2ccccc2NC2=C(C(=O)CC(C)(C)C2)[C@@H]1c1ccc(OCc2ccccc2)c(Cl)c1 | – | – | – | 1 µM | – | –
CC(=O)N1c2cccc(C)c2NC2=C(C(=O)CC(C)(C)C2)C1c1ccc(Cl)cc1Cl (stereo unspecified) | – | 14.6 µM | – | 4.78 µM | – | –
CC(=O)N1c2cccc(O)c2NC2=C(C(=O)CC(C)(C)C2)C1c1ccc(Oc2ccccc2Br)cc1Cl (stereo unspecified) | – | 7.1 µM | – | 0.1 µM | – | –
CC(=O)N1c2ccccc2NC2=C(C(=O)CC(C)(C)C2)C1c1ccc(OCc2ccccc2)cc1Cl (stereo unspecified) | – | 2.3 µM | – | 0.9 µM | – | –
CC(=O)N1c2cccc(O)c2NC2=C(C(=O)CC(C)(C)C2)C1c1ccccn1 (stereo unspecified) | – | > 32 µM | – | > 32 µM | – | –
CC(=O)N1c2cccc(O)c2NC2=C(C(=O)CC(C)(C)C2)C1c1cn(C)c2ccccc12 (stereo unspecified) | – | > 32 µM | – | 13 µM | – | –
CC(C)C(=O)N1c2cccc(O)c2NC2=C(C(=O)CC(C)(C)C2)C1c1ccc(OCc2ccccc2)cc1Br (stereo unspecified) | – | 2.4 µM | 12 µM | 0.087 µM | – | –
